Data set [1] concerns the target hERG channel (Homo sapiens (Human), UniProt Q12809). Kind of data set: Evaluation of hERG channel inhibitory activity (whole-cell patch clamp, hERG-CHO cells). It counts as cell-based. The following applies: autopatch clamp, read-out: hERG inhibition IC50. In general terms: The hERG channel carries a current that helps repolarise heart muscle cells.
Data set [2] deals with human TAAR1 receptor (Homo sapiens (Human), UniProt Q96RJ0). Kind of data set: Evaluation of agonist activity on human TAAR1 receptor (cAMP assay). The format is cell-based. The conditions noted are these: cAMP in human TAAR1-expressing CHO cells, relative to 100 μM tyramine; for activation at 0.1 µM / activation at 1 µM / activation at 10 µM: CHO, 0.5 h, read-out: TAAR1 agonist activity at each concentration (%); for activation at 1 µM: 1000 nM; for activation at 10 µM: 10000 nM. How it is done:
TAAR1 is a G protein-coupled receptor that binds to G proteins (Gas), and activation of the TAAR1 receptor by agonists induces an increase in intracellular cAMP levels. Therefore, the agonist activity of the sample on the human TAAR1 receptor was evaluated using the cAMP assay method.
cAMP Hunter™ CHO-K1 TAAR1 Gs Cell Line, a cell expressing human TAAR1 receptor, was purchased. Human TAAR1-expressing CHO cells were seeded in a 96-well plate, and after culturing for 24 hours, a sample dissolved in DMSO was added and incubated at 37° C. for 30 minutes. A sample for cAMP measurement was prepared according to the cAMPHiRange kit protocol. The amount of cAMP produced by the sample was measured by time-resolved fluorescence using EnVision (excitation wavelength: 330 nm, fluorescence wavelength […]/665 nm).
Sample %=100×{(Csamp)−(Cblank)}/{(Ctyramine)−(Cblank)} • Csamp: count of sample, Ctyramine: count of 100 μM tyramine, Cblank: count of blank

The text below walks through data of patent US20240150370A1, “BICYCLIC PYRIDINE DERIVATIVE” (Sumitomo Pharma Co., Ltd., priority 0001, published 2024).

Usually IC50 stands for the point on the concentration scale where inhibition reaches its midpoint.

Molecules are shown by their SMILES. Where a name gives a salt, the structure may show the parent alone. Where only a bound is given, the exact number is not on record here.

Chain of hERG channel (Q12809 whole entry, the tested form may be a part): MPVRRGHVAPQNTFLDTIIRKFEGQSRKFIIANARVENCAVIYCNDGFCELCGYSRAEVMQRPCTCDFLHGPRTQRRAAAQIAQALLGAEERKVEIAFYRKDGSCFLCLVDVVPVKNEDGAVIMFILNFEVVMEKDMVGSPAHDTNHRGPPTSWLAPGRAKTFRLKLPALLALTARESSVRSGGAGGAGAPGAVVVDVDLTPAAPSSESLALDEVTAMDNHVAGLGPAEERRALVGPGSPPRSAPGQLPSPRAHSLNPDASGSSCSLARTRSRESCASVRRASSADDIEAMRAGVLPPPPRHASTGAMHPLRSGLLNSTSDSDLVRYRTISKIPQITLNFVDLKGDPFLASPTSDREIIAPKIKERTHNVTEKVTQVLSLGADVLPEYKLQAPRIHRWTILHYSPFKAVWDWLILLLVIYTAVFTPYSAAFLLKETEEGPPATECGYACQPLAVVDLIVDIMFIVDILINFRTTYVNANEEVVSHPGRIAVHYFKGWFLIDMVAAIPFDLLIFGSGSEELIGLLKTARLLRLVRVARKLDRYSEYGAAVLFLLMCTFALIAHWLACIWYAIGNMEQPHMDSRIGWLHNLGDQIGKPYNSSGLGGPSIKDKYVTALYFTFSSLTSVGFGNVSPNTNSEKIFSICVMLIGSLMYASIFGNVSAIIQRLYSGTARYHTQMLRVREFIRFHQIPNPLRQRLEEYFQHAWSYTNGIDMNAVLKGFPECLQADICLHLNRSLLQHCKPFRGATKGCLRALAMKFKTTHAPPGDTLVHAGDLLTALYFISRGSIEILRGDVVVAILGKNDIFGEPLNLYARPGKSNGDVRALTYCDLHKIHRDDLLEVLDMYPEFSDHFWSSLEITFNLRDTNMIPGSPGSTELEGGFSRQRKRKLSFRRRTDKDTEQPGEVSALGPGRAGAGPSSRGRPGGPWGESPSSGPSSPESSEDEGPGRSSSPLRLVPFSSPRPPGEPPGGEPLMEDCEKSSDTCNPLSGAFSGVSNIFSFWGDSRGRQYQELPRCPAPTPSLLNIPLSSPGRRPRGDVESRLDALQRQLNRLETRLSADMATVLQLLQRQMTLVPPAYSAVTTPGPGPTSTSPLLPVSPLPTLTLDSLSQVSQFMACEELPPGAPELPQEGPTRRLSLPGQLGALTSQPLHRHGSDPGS
Chain of human TAAR1 receptor (Q96RJ0 whole entry, the tested form may be a part): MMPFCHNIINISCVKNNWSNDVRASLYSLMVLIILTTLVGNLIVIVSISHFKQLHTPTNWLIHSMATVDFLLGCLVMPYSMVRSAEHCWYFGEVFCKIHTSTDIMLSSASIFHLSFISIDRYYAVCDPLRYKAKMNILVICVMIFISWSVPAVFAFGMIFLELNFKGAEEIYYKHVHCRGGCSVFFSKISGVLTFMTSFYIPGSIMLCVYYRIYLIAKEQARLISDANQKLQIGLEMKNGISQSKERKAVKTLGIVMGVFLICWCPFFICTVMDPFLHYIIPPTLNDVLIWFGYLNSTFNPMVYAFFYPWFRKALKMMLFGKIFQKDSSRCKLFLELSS

In the case of `Cc1ccnc2c1O[C@H](C)[C@H]2CN` [Example 34, 1-[(2R,3S)-2,7-dimethyl-2,3-dihydrofuro[3,2-b]pyridin-3-yl]methanamine dihydrochloride], in data set [1], the IC50 is > 100 µM. Besides, in data set [2] (100 nM), the activation at 0.1 µM turned out to be 10%. Further, in data set [2], the activation at 1 µM was determined as 48% and the activation at 10 µM turned out to be 83%.
On to `C[C@H]1Oc2cccnc2[C@@H]1CN` [Example 27, 1-[(2R,3S)-2-methyl-2,3-dihydrofuro[3,2-b]pyridin-3-yl]methanamine dihydrochloride], for which, in data set [1], the IC50 was > 100 µM. In data set [2] (100 nM), the activation at 0.1 µM was determined as 40%. Also, in data set [2], the activation at 1 µM was determined as 81% and the activation at 10 µM stood at 95%.
With `C[C@@H]1C[C@@H](CN)c2ncccc2S1` (racemic) [Example 14], the IC50 in data set [1] is > 100 µM. For the same molecule, the activation at 0.1 µM in data set [2] (100 nM) is 10%. In data set [2], the activation at 1 µM came to 47% and the activation at 10 µM is 74%.
`Cc1ccc2c(n1)C(CN)CS2` (stereo not shown) [Example 11]: the IC50 in data set [1] is > 100 µM. The activation at 0.1 µM in data set [2] (100 nM) was 20%. In data set [2], the activation at 1 µM came to 58% and the activation at 10 µM was determined as 79%.
The corresponding values for `NC[C@@H]1CSc2cccnc21` (single isomer, unassigned) [Example 42, dihydrochloride] are > 100 µM, 25%, 70% and 90%.
As for `COc1ccc2c(n1)C(CN)CCC2` (racemic) [Example 88, rac-1-(2-methoxy-5,6,7,8-tetrahydroquinolin-8-yl)methanamine dihydrochloride], in data set [1], the IC50 is > 100 µM. The activation at 0.1 µM in data set [2] (100 nM) worked out at 11%. Further, in data set [2], the activation at 1 µM was determined as 38% and the activation at 10 µM came to 65%.
The like results for `NC[C@H]1c2ncccc2OC12CC2` (single isomer, unassigned) [Example 97, rel-1-[(3'S)-3′H-spiro[cyclopropane-1,2′-furo[3,2-b]pyridine]-3′-yl]methanamine dihydrochloride] were, in that order, > 100 µM, 70%, 101% and 96%.
As to `Cc1ccc2c(n1)[C@H](CN)C[C@@H](C)O2` [Example 18], in data set [1], the IC50 was > 100 µM. Also, the activation at 0.1 µM in data set [2] (100 nM) was determined as 29%. In data set [2], the activation at 1 µM was determined as 73% and the activation at 10 µM was determined as 87%.
The corresponding values for `NC[C@@H]1CCSc2cccnc21` (single isomer, unassigned) [Example 40, dihydrochloride] are > 100 µM, 25%, 57% and 68%.
The corresponding values for `Cc1ccc2c(n1)C(CN)CCS2` (stereo not shown) [Example 12] are > 100 µM, 21%, 58% and 75%.
Turning to `C[C@H]1Oc2cc(Cl)cnc2[C@@H]1CN` [Example 37, 1-[(2R,3S)-6-chloro-2-methyl-2,3-dihydrofuro[3,2-b]pyridin-3-yl]methanamine dihydrochloride], the IC50 in data set [1] is > 100 µM. For the same molecule, the “TAAR1 agonist activity at each concentration (%)” value in data set [2] (100 nM, dihydrochloride) was determined as 13%. In data set [2], the activation at 1 µM was found to be 49% and the activation at 10 µM was determined as 72%.
Consider `C[C@H]1Sc2cccnc2[C@@H]1CN` (racemic) [Example 15], for which, in data set [1], the IC50 is > 100 µM. Also, in data set [2] (100 nM), the activation at 0.1 µM was 24%. Besides, in data set [2], the activation at 1 µM amounted to 67% and the activation at 10 µM was 90%.
The corresponding values for `Cc1cc(C)c2c(n1)[C@H](CN)[C@@H](C)O2` [Example 84] are > 100 µM, 15%, 51% and 79%.
The corresponding values for `CNCC1c2nc(C)ccc2OC1(C)C` (stereo not shown) [Example 79] are > 100 µM, 36%, 77% and 90%.
The corresponding values for `Cc1ccc2c(n1)C(CN)C(C)(C)O2` (stereo not shown) [Example 83] are > 100 µM, 59%, 91% and 99%.
Consider `C[C@@H]1Sc2cccnc2[C@@H]1CN` (racemic) [Example 16], for which, in data set [1], the concentration for half-maximal inhibition (IC50) was found to be 68.6 µM. Besides, the activation at 0.1 µM in data set [2] (100 nM) came to 6%. Moreover, in data set [2], the activation at 1 µM is 37% and the activation at 10 µM stood at 76%.
The corresponding values for `Cc1ccc2c(n1)C(CN)C1(CC1)O2` (racemic) [Example 90, rac-1-(5′-methyl-3′H-spiro[cyclopropane-1,2′-furo[3,2-b]pyridine]-3′-yl)methanamine dihydrochloride] are 71.8 µM, 54%, 85% and 94%.
Regarding `C[C@H]1Oc2cc(F)cnc2[C@@H]1CN` [Example 8, 1-[(2R,3S)-6-fluoro-2-methyl-2,3-dihydrofuro[3,2-b]pyridin-3-yl]methanamine dihydrochloride], the 50% inhibitory concentration (IC50) in data set [1] was > 100 µM. For the same molecule, the activation at 0.1 µM in data set [2] (100 nM) came out at 24%. For the same molecule, in data set [2], the activation at 1 µM is 63% and the activation at 10 µM came to 75%.
The corresponding values for `CNCC1CCSc2cccnc21` (racemic) [Example 45, rac-1-(3,4-dihydro-2H-thiopyrano[3,2-b]pyridin-4-yl)-N-methylmethanamine dihydrochloride] are > 100 µM, 13%, 51% and 77%.
The corresponding values for `CC1(C)Oc2cccnc2C1CN` (stereo not shown) [Example 23] are > 100 µM, 35%, 74% and 91%.
`NC[C@H]1CSc2cccnc21` (single isomer, unassigned) [Example 41, dihydrochloride]: the half-inhibitory concentration (IC50) in data set [1] was > 100 µM. For the same molecule, in data set [2] (100 nM), the activation at 0.1 µM worked out at 12%. In data set [2], the activation at 1 µM is 38% and the activation at 10 µM came to 65%.
Regarding `CNC[C@H]1c2ncc(F)cc2O[C@@H]1C` [Example 49, 1-[(2R,3S)-6-fluoro-2-methyl-2,3-dihydrofuro[3,2-b]pyridin-3-yl]-N-methylmethanamine dihydrobromide], in data set [1], the IC50 is > 100 µM. In data set [2] (100 nM), the activation at 0.1 µM was 25%. In data set [2], the activation at 1 µM was found to be 63% and the activation at 10 µM amounted to 75%.
Take `Cc1ccc2c(n1)[C@H](CN)[C@@H](C)O2` [Example 35, 1-[(2R,3S)-2,5-dimethyl-2,3-dihydrofuro[3,2-b]pyridin-3-yl]methanamine]: the IC50 in data set [1] is > 100 µM. Further, in data set [2] (100 nM), the activation at 0.1 µM came to 57%. Further, in data set [2], the activation at 1 µM is 82% and the activation at 10 µM came to 87%.
The corresponding values for `NCC1CCSc2cccnc21` (stereo not shown) [Example 9] are > 100 µM, 15%, 53% and 70%.
Regarding `CC[C@H]1Oc2cccnc2[C@@H]1CN` (stereo in doubt) [Example 22], in data set [1], the IC50 was > 100 µM. Moreover, in data set [2] (100 nM), the activation at 0.1 µM came out at 11%. In addition, in data set [2], the activation at 1 µM came out at 56% and the activation at 10 µM was 84%.
